The experiment addresses cruzipain (Cz) (Trypanosoma cruzi, UniProt P25779). Description: chromogenic Bz-Pro-Phe-Arg-pNA protease assay on partially purified native cruzipain, […] nm. The class given is biochemical.

IC50 data for one molecule are collected here from article PMC3926237, “Identification of Levothyroxine Antichagasic Activity through Computer-Aided Drug Repurposing” (The Scientific World Journal, 2014).

Sequence of cruzipain (Cz) (P25779 123-467): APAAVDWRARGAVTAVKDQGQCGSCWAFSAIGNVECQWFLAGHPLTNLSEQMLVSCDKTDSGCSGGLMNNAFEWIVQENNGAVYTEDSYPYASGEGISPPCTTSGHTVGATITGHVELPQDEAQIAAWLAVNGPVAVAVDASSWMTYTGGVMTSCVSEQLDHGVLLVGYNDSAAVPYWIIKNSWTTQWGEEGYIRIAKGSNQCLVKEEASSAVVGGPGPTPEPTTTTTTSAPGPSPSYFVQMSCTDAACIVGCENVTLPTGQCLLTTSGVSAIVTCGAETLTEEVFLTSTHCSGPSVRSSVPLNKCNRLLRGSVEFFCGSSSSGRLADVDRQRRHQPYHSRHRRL

On to `N[C@@H](Cc1cc(I)c(Oc2cc(I)c(O)c(I)c2)c(I)c1)C(=O)O` [levothyroxine], for which the IC50 is 38.4 ± 6.82 µM.

As a reminder, the IC50 is the concentration at which inhibition is half-maximal. A lower IC50 goes with inhibition by little substance.
